{"source": "patent US20110033946A1", "about": "“DETECTION OF SHORT-CHAIN FATTY ACIDS IN BIOLOGICAL SAMPLES” (HEMAQUEST PHARMACEUTICALS, INC., priority 2009, published 2011)", "key": {"[1]": {"type": "physicochemical, dog", "conditions": "for Bench top stability, Mean concentration / Bench top stability, RE % (mean vs nominal): dog, 17 h", "protocol": "(§1) For the remaining validation tests, a calibration curve and triplicates QCs at the low, mid and high levels were analyzed with each sample set. The following samples were also analyzed either in conjunction with one of the precision and accuracy runs or in one of the additional validation runs: Samples from six lots of control dog plasma for specificity. Two concentration levels of unextracted QC-samples in triplicate (solvent standards) were analyzed for the evaluation of the recovery of sodium 2,2-dimethylbutyrate and DMV in dog plasma. Two levels of QC samples (Low QC and High QC in triplicate) were subjected to three freeze/thaw cycles at approximately −70° C. prior to extraction to evaluate freeze/thaw stability. Two levels of QC samples (Low QC and High QC in triplicate) were placed on the bench top for approximately 17 hours prior to extraction for the evaluation of the bench top stability. Triplicate low QC samples and triplicate high QC samples were stored for one month and three months in a freezer at approximately −70° C., and then extracted and analyzed to evaluate long term stability in dog plasma. Three aliquots of a dilution QC sample diluted 10-fold.\nBench top stability was evaluated at room temperature for approximately 17 hours. Triplicate QC-Low and QC-High samples were extracted and analyzed after these storage conditions. The CV % values for the QC-Low and QC-High stability samples are 3.2% and 3.4%, respectively. To calculate the RE %, the measured mean concentration was compared to the nominal concentration. The RE % values for the QC-Low and QC-High stability samples are 2.1% and −10.7%, respectively."}, "[2]": {"type": "physicochemical, rat", "conditions": "for Mean concentration, QC-Low / RE %, QC-Low / Measured concentration, QC-Low: nominal 0.60 μg/mL; for Measured concentration, QC-Low / Measured concentration, QC-High: individual replicates; for Mean concentration, QC-High / RE %, QC-High / Measured concentration, QC-High: nominal 40.0 μg/mL; for Long-term freezer stability, RE %: rat, 0.6 μg/mL", "protocol": "as §1, with “rat” for “dog”, “specificity; Samples from six lots of control rat plasma fortified with internal standard for specificity;” for “specificity.”, “rat plasma;” for “dog plasma.”, “stability;” for “stability.”\nQC-Low and QC-High plasma samples, which had been stored in a freezer at approximately −70° C. for one month and three months (98 days), were extracted in triplicate and analyzed. At the one month interval, the RE % was −24.1% for the QC-Low level. This may have been an anomaly since at the QC-Low level for the three month interval, the RE % was 4.1%. All CV % values and RE % values at the 98 day interval were within the acceptance criteria (≦15% and ±15% respectively). Therefore, sodium 2,2-dimethylbutyrate can be considered stable in rat plasma at approximately −70° C. for at least […]."}, "[3]": {"test": "Freeze/thaw stability in human urine", "type": "physicochemical", "conditions": "stored at −70° C. and thawed, repeated twice, 0.3, 19 and 38 μg/ml", "protocol": "The applicability of the testing methodology to analyze samples stored under different conditions was analyzed. First, to assess short-term stability of DMB in human urine, samples at 0.3, 19 and 38 μg/ml, 92.3% of DMB were maintained unextracted at room temperature and at bench-top light levels for six hours. […] Second, to assess freeze/thaw stability of DMB in human urine, samples at 0.3, 19 and 38 μg/ml, 92.3% of DMB were stored at −70° C. and thawed. This process was repeated twice and samples after each freezing were analyzed for DMB as described. For each concentration and each freezing/thawing sample, the % CV was no more than 15%."}, "[4]": {"conditions": "rat plasma, approximately −70° C., 1 Month Interval"}, "[5]": {"conditions": "rat plasma, approximately −70° C., 3 Month Interval"}}, "note": "Values joined by “and” are separate entries in the source; they are usually repeats but may differ in a detail not shown here. Equal values may be shown once. Read-outs that look alike come from different tables or passages of the source.", "data": [{"smiles": "CCC(C)(C)C(=O)[O-].[Na+]", "note": "[Sodium 2,2-Dimethylbutyrate]", "values": [{"measurement": "Time stable on bench top", "setting": "[1]; dog plasma, ambient bench top storage", "value": "approximately 17 hours"}, {"measurement": "Bench top stability, Mean concentration", "setting": "[1]; 0.6 μg/mL", "value": 0.613, "unit": "µg/mL"}, {"measurement": "Bench top stability, RE % (mean vs nominal)", "setting": "[1]; 0.6 μg/mL", "value": 2.1, "unit": "%"}, {"measurement": "Bench top stability, Mean concentration", "setting": "[1]; 40 μg/mL", "value": 35.7, "unit": "µg/mL"}, {"measurement": "Bench top stability, RE % (mean vs nominal)", "setting": "[1]; 40 μg/mL", "value": "−10.7", "unit": "%"}, {"measurement": "Mean concentration, QC-Low", "setting": "[2]; [4]", "value": 456, "unit": "ng/mL"}, {"measurement": "RE %, QC-Low", "setting": "[2]; [4]", "value": "−24.1", "unit": "%"}, {"measurement": "Measured concentration, QC-Low", "setting": "[2]; [4]", "value": "0.410 µg/mL and 0.484 µg/mL and 0.473 µg/mL"}, {"measurement": "Mean concentration, QC-High", "setting": "[2]; [4]", "value": 34700, "unit": "ng/mL"}, {"measurement": "RE %, QC-High", "setting": "[2]; [4]", "value": "−13.3", "unit": "%"}, {"measurement": "Measured concentration, QC-High", "setting": "[2]; [4]", "value": "35.4 µg/mL and 34.3 µg/mL and 34.4 µg/mL"}, {"measurement": "Mean concentration, QC-Low", "setting": "[2]; [5]", "value": 620, "unit": "ng/mL"}, {"measurement": "RE %, QC-Low", "setting": "[2]; [5]", "value": 4.1, "unit": "%"}, {"measurement": "Measured concentration, QC-Low", "setting": "[2]; [5]", "value": "0.663 μg/mL and 0.605 μg/mL (2×)"}, {"measurement": "Mean concentration, QC-High", "setting": "[2]; [5]", "value": 37200, "unit": "ng/mL"}, {"measurement": "RE %, QC-High", "setting": "[2]; [5]", "value": "−7.1", "unit": "%"}, {"measurement": "Measured concentration, QC-High", "setting": "[2]; [5]", "value": "38.0 μg/mL (2×) and 35.5 μg/mL"}, {"measurement": "Time stable in freezer", "setting": "[2]; rat plasma, approximately −70° C.", "value": "at least 99 days"}, {"measurement": "Long-term freezer stability, RE %", "setting": "[2]; 1 month", "value": "−24.1", "unit": "%"}, {"measurement": "Long-term freezer stability, RE %", "setting": "[2]; 98 days", "value": 4.1, "unit": "%"}, {"measurement": "% CV after freeze/thaw", "setting": "[3]", "value": "no more than 15%"}]}]}
